The subject of assay [1] is human colon cancer HCT-116 cells. Kind of assay: Assay of cell proliferation (CellTiter-Glo). Particulars: 144 h, 6 days, read-out: HCT-116 IC50 of cell proliferation inhibitory activity. The format is cell-based. The procedure, abridged:
(§1)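 Cells seeded per line at growth-adapted densities, treated 6 days at 37 °C/5% CO2 with nine 3-fold dilutions (10 µM to 0.1 nM final, 0.5% DMSO). Viability by CellTiter-Glo luminescence; IC50 from four-parameter fit.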
On the technique in general: Cellular ATP, detected with luciferase, serves as a proxy for viable cell number.

For assay [2], the system named is human gastric cancer MKN1 cells. Briefly: Assay of cell proliferation (CellTiter-Glo). Particulars: Homo sapiens, MKN-1, 144 h; MNK1, 6 days; read-out: MKN1 IC50 of cell proliferation inhibitory activity. The format is cell-based. In outline: as §1
For assay [3], the system named is human breast cancer HCC1806 cells. Kind of assay: Assay of cell proliferation (CellTiter-Glo). The assay is classed as cell-based. Particulars: Homo sapiens, 144 h, 6 days, read-out: HCC1806 IC50 of cell proliferation inhibitory activity. In outline:
as §1

In assay [4] the test system is human breast cancer MCF-7 cells. Briefly: Assay of cell proliferation (CellTiter-Glo). The assay is classed as cell-based. Particulars: 144 h, MCF7 cells, 6 days, read-out: MCF7 IC50 of cell proliferation inhibitory activity. In outline:
as §1

The subject of assay [5] is human acute myeloid leukemia MV-4-11 cells. Kind of assay: Assay of cell proliferation (CellTiter-Glo). The assay is classed as cell-based. Particulars: MV4-11, 144 h, 6 days, read-out: MV-4-11 IC50 of cell proliferation inhibitory activity. The procedure, abridged: as §1
Another assay concerns the target CDK6/cyclin D3 (Homo sapiens, UniProt Q00534). Briefly: Assay of kinase activity (ADP-Glo). The format is biochemical. Particulars: kinase inhibitory activity. In outline:
(§2)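 ADP production quantified by luminescence after 60 min kinase reaction at 25 °C, started with substrate/ATP following 10 min enzyme-compound preincubation. Buffer: 50 mM Hepes, 10 mM MgCl2, 0.01% Brij35, 2 mM DTT. IC50 obtained by nonlinear curve fitting of inhibition data.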

The next assay deals with CDK9/cyclin T1 (Homo sapiens, UniProt P50750). Briefly: Assay of kinase activity (ADP-Glo). Particulars: kinase inhibitory activity. The format is biochemical. The procedure, abridged: as §2
On the technique in general: ADP-Glo turns the ADP formed in a reaction into a luminescent signal.

The subject of assay [6] is Human ovarian cancer OVCAR3 cells. Kind of assay: Assay of cell proliferation (CellTiter-Glo). Particulars: Homo sapiens, OVCAR-3, 144 h, 6 days, read-out: OVCAR3 IC50 of cell proliferation inhibitory activity. The format is cell-based. In outline: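 OVCAR3 cells, 2000/well in RPMI 1640 with 20% FBS, treated with nine 3-fold dilutions from 10 µM to 0.1 nM (0.5% DMSO) for 6 days at 37 °C. Viability by CellTiter-Glo luminescence; IC50 by four-parameter fit.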

The target in the next assay is CDK2/cyclin E (Homo sapiens, UniProt P24941). Briefly: Assay of kinase activity (ADP-Glo). The format is biochemical. Particulars: kinase inhibitory activity, read-out: CDK2/E1 IC50. The procedure, abridged: (§3)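 Kinase preincubated 10 min with compound in 50 mM Hepes, 10 mM MgCl2, 0.01% Brij35, 2 mM DTT, then substrate/ATP added for 60 min at 25 °C. ADP formed measured by ADP-Glo luminescence; IC50 by nonlinear concentration-response fitting.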

The next assay addresses CDK4/cyclin D1 (Homo sapiens, UniProt P11802). Briefly: Assay of kinase activity (ADP-Glo). The format is biochemical. Particulars: kinase inhibitory activity. In outline:
as §3

Sequence of CDK4/cyclin D1 (P11802 whole entry, species assumed): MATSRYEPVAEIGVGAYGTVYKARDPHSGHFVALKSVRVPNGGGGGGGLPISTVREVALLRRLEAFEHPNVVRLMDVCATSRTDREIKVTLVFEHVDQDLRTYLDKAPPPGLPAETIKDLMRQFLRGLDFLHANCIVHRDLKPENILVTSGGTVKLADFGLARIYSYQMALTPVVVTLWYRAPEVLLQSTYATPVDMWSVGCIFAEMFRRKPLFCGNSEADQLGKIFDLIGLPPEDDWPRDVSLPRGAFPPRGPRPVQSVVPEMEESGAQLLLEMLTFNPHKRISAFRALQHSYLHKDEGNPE
Sequence of CDK4/cyclin D1 (P24385 whole entry partner, species assumed): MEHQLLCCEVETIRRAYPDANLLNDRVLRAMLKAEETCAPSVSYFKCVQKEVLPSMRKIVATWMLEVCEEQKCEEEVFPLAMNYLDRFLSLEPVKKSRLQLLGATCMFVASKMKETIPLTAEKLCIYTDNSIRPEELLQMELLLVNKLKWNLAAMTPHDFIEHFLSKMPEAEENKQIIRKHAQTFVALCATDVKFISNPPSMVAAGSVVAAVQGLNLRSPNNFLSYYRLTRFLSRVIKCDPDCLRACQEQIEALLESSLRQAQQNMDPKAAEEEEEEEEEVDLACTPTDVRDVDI
Sequence of CDK9/cyclin T1 (P50750 whole entry, species assumed): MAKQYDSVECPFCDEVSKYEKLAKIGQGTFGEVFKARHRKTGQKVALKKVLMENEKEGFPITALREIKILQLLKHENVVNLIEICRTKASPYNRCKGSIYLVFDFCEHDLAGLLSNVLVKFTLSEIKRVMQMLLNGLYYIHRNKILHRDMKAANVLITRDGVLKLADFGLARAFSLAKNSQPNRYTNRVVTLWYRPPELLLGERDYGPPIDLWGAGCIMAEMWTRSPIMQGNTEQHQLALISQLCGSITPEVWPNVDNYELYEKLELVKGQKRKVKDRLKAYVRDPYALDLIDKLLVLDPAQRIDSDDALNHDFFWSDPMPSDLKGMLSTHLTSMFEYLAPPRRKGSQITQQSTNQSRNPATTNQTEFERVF
Sequence of CDK9/cyclin T1 (O60563 whole entry partner, species assumed): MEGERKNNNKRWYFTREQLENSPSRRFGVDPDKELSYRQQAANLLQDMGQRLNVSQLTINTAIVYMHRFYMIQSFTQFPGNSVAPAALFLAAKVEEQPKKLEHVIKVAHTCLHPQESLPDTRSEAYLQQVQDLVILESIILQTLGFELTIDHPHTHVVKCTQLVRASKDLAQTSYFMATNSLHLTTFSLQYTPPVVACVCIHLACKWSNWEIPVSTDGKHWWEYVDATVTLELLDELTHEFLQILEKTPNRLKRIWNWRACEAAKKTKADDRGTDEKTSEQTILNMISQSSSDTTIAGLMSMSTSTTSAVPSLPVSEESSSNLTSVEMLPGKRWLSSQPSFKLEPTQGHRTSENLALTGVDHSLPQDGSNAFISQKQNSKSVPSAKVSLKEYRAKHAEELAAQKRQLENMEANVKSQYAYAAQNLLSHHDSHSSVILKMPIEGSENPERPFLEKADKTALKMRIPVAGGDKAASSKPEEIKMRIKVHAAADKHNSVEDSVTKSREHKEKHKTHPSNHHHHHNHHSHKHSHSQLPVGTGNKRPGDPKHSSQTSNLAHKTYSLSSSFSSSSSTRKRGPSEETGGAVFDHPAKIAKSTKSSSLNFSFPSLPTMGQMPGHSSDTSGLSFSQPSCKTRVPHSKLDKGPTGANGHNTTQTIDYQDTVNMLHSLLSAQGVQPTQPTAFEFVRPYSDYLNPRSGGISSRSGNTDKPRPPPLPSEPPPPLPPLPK
Sequence of CDK6/cyclin D3 (Q00534 whole entry, species assumed): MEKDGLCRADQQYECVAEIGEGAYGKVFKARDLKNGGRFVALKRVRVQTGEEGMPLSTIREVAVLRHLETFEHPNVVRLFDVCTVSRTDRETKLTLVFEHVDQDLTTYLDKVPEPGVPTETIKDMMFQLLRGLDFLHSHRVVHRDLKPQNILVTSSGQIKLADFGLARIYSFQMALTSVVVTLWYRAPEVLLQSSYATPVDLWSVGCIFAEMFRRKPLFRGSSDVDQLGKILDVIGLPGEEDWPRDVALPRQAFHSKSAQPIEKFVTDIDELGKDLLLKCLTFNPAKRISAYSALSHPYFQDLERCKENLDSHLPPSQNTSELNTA
Sequence of CDK6/cyclin D3 (P30281 whole entry partner, species assumed): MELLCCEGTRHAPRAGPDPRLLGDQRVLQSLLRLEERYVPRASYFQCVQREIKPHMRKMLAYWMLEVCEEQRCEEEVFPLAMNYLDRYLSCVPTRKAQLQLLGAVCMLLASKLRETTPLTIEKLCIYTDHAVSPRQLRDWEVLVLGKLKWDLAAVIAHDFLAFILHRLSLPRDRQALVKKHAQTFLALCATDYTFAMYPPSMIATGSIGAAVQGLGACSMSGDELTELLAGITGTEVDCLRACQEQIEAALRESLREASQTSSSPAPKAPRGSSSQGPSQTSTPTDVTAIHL

`CC(C)n1nnc2ccc3cnc(Nc4ccc(C(=O)N5CCOCC5)cc4)nc3c21` [Example I-35, (4-((1-Isopropyl-1H-[1,2,3]triazolo[4,5-H]quinazolin-8-yl)amino)phenyl)(morpholino)methanone]: the IC50 in assay [1] came to 95 nM; in assay [2], 21 nM; in [3], 233 nM; in [4] it was 162 nM; in assay [5], 16 nM; on CDK6/cyclin D3 it was 12 nM. For the same molecule, the IC50 came out at 6 nM against CDK9/cyclin T1, 224 nM in assay [6], 0.7 nM on CDK2/cyclin E and 2 nM on CDK4/cyclin D1.

The record behind these values is EP4711369A1, “1H-[1,2,3]TRIAZOLO[4,5-H]QUINAZOLINE COMPOUNDS AS PROTEIN KINASE INHIBITORS” (Chengdu Cynogen Bio-Pharmaceutical Technology Co., Ltd., priority 2023, dated 2024).
